For assay [1], the system named is HLA-A*0201/Kb transgenic mice. Conditions: cited from earlier work.
The subject of assay [2] is T-cells of healthy donors. Put plainly: Immunogenicity and functional T-cell data (Example 6). Type of assay: cell-based, human. On the procedure: The immunogenicity of MAG-003 was tested using protocols that mimic the manufacturing procedure for a pharmaceutical product.
For the next assay, the target named is HLA-A*02:01 (Homo sapiens, UniProt P04439, D140Y/D185E/D98H/E176V/E277Q/G131W/G231S/I119V/I121R/I166T/I218V/L300P/L318F/N151K/N90K/P208A/P217A/Q86G/Q94H/R138H/R169H/T345S). Put plainly: Binding to HLA-A*02:01 (additional data, Example 6).
A further assay deals with HLA-A*0201 molecule (Homo sapiens, UniProt P04439, D140Y/D185E/D98H/E176V/E277Q/G131W/G231S/I119V/I121R/I166T/I218V/L300P/L318F/N151K/N90K/P208A/P217A/Q86G/Q94H/R138H/R169H/T345S). Conditions: Wu et al. 2011; cited from earlier work.
For assay [3], the system named is HLA-A*0201-positive PBMCs. Conditions: cited from earlier work.
Assay [4] deals with advanced esophageal, stomach or lung cancer. Conditions: of 15 patients who completed one vaccination cycle; cited from earlier work.

Turning to “KVLEHVVRV (listed as Homo sapiens) [MAG-003]”, the “elicitation of peptide-specific CTLs” value in assay [1] (HLA-A*0201/Kb transgenic mice, Jia et al. 2010) is “elicits peptide-specific CTLs”; in assay [3] (in vitro from HLA-A*0201-positive PBMCs, Jia et al. 2010) it was “elicits peptide-specific CTLs”. The “killing of peptide loaded target cells by generated T cells” value in assay [2] is on record as “able to kill peptide loaded target cells”. The “priming of peptide-specific T-cells” value in assay [2] (healthy donors, protocols mimicking manufacturing procedure) is listed as “Priming of MAG-003-specific T-cells was observed”. Besides, the “binding to HLA-A*02:01” value in the assay with HLA-A*02:01 is recorded as “very good binding”. The “binding affinity and stability towards HLA-A*0201 molecule” value with HLA-A*0201 molecule was “potent binding affinity and stability”. Also, in assay [3] (Jia et al. 2010), the “lysis of target cells by the induced CTLs” value is listed as “lyse target cells in an HLA-A*0201-restricted fashion”.
With “p286-1Y2L9L: MAG-003 variant having 3 amino acid substitutions, printed as SEQ ID NO:3 (KVLEHVVRA; listed as Homo sapiens)”, the “induction of specific CTLs that lyse target cancer cells” value in assay [1] (HLA-A2.1/Kb transgenic mice, Wu et al. 2011) is on record as “capability to induce specific CTLs”; in assay [3] (PBMCs of healthy donors, Wu et al. 2011), “capability to induce specific CTLs”. In the assay with HLA-A*0201 molecule, the “binding affinity and stability towards HLA-A*0201 molecule” value was “potent binding affinity and stability”.
In the case of “p286-1Y2L: MAG-003 variant having 2 amino acid substitutions, printed as SEQ ID NO:2 (KVLEHVVRL; listed as Homo sapiens)”, in the assay with HLA-A*0201 molecule, the “binding affinity and stability towards HLA-A*0201 molecule” value is “potent binding affinity and stability”.

B1: MAGEA4 vaccine: MAGEA4 vaccine containing protein, given subcutaneously once every 2 weeks in six doses (Saito et al., 2014) (protein, UniProt P43358 1-317, looked up)
Melanoma-associated antigen 4: MSSEQKSQHCKPEEGVEAQEEALGLVGAQAPTTEEQEAAVSSSSPLVPGTLEEVPAAESAGPPQSPQGASALPTTISFTCWRQPNEGSSSQEEEGPSTSPDAESLFREALSNKVDELAHFLLRKYRAKELVTKAEMLERVIKNYKRCFPVIFGKASESLKMIFGIDVKEVDPASNTYTLVTCLGLSYDGLLGNNQIFPKTGLLIIVLGTIAMEGDSASEEEIWEELGVMGVYDGREHTVYGEPRKLLTQDWVQENYLEYRQVPGSNPARYEFLWGPRALAETSYVKVLEHVVRVNARVRIAYPSLREAALLEEEEGV
modifications: vaccine formulation
In the case of B1, in assay [4], the “patients with CD4 T-cell response” value was “three”, the “patients with CD8 T-cell response” value was “six” and the “patients with MAGEA4-specific humoral response” value is “four”.

The values above are taken from patent US12168044B2, “Peptides and combination of peptides for use in immunotherapy against non-small cell lung cancer and other cancers” (priority 2016, dated 2024).
